Measurements: US12082597B2, “Supplemented fish feed” (CAN TECHNOLOGIES, INC., priority 2013, dated 2024)
Where two headings read alike, the source gives them in different places.

Experiments:
[1] = cited from earlier work
DT50 in sea water = type: physicochemical; conditions: 16° C.; Not GLP/GEP
[2] = Half-life in fish-farm sediment (Skye); type: physicochemical; conditions: Not GLP/GEP
Experimental: In common with most plant-derived biocides, the azadirachtin terpenoids have a short half-life in the environment. They hydrolyse in water, and their disappearance is faster the more alkaline the water. For example, at pH 7.0 and 20° C. the half-life of azadirachtin terpenoids is 19.5 days, and at pH 8.0 it is 4.4 days. As seawater is slightly alkaline, (pH 7.5-8.4) any dissolved azadirachtin terpenoids will have largely disappeared within a week. Azadirachtin is rapidly catabolized by the microflora in soil. […] Preliminary studies with some sediment from below cages in Skye (Scotland) and subsequently infused with NeemAzal® in the laboratory have indicated a half-life of 3 weeks for NeemAzal® Technical added to the sediment and incubated at 15° C. Unchanged excreted material will be infinitely diluted in the water and hydrolyzed within days into small fragments without biological activity.

[3] = 20° C.; cited from earlier work

## C/C=C(\C)C(=O)O[C@H]1C[C@@H](OC(C)=O)[C@@]2(C(=O)OC)CO[C@H]3[C@@H](O)[C@@](C)([C@]45O[C@@]4(C)[C@H]4C[C@@H]5O[C@@H]5OC=C[C@@]54O)[C@H]4[C@]1(CO[C@]4(O)C(=O)OC)[C@@H]32 (relative stereo) [Azadirachtin A, dimethyl [2aR-[2aα,3β,4β(1aR*,2S*,3aS*,6aS*,7S*,7aS*),4aβ,5α,7aS*,8β(E),10β,10aα,10bβ]]-10-(acetyloxy)octahydro-3,5-dihydroxy-4-methyl-8-[(2-methyl-1-oxo-2-butenyl)oxy]-4-(3a,6a,7,7a)-tetrahydro-6a-hydroxy-7a-methyl-2,7-methanofuro[2,3-b]oxireno[e]oxepin-1a(2H)-yl)-1H,7H-naphtho-[1,8-bc:4,4a-c′]difuran-5,10a(8H)-dicarboxylate]
[1]; pH 4.0
  DT50 in fresh water: 50 days
[1]; pH 7.0
  DT50 in fresh water: 19 days
[1]; pH 8.0
  DT50 in fresh water: 4 days
DT50 in sea water
  DT50 in sea water: 8 days
[2]
  DT50 in fish-farm sediment (Skye): 3 weeks
[3]
  DT50 in field soil: 4 to 5 days
